Data as given in PubChem BioAssay (NCI).
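All cell lines were grown in 96-well plates and treated with compound for 48 hours. Here, GI50 denotes the concentration required for 50% inhibition of growth. TGI is the concentration that stops growth completely.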

Assays:
Experiment in all cases: inhibition of tumour cell growth, NCI panel, 48 h
COLO 205 colon = test system: COLO 205 colon
OVCAR-8 ovarian = test system: OVCAR-8 ovarian
MDA-MB-231 breast = test system: MDA-MB-231 breast
IGROV1 ovarian = test system: IGROV1 ovarian
KM12 colon = test system: KM12 colon
TK-10 renal = test system: TK-10 renal
NCI/ADR-RES ovarian = test system: NCI/ADR-RES ovarian
SF-268 CNS = test system: SF-268 CNS
OVCAR-4 ovarian = test system: OVCAR-4 ovarian
LOX IMVI melanoma = test system: LOX IMVI melanoma

Row | Structure (SMILES) | TGI (COLO 205 colon) [µM] | TGI (OVCAR-8 ovarian) [µM] | TGI (MDA-MB-231 breast) [µM] | TGI (IGROV1 ovarian) [µM] | TGI (KM12 colon) [µM] | TGI (TK-10 renal) [µM] | TGI (NCI/ADR-RES ovarian) [µM] | TGI (SF-268 CNS) [µM] | TGI (OVCAR-4 ovarian) [µM] | TGI (LOX IMVI melanoma) [µM] | GI50 (COLO 205 colon) [µM] | GI50 (OVCAR-8 ovarian) [µM] | GI50 (MDA-MB-231 breast) [µM] | GI50 (IGROV1 ovarian) [µM] | GI50 (KM12 colon) [µM] | GI50 (TK-10 renal) [µM] | GI50 (NCI/ADR-RES ovarian) [µM] | GI50 (SF-268 CNS) [µM] | GI50 (OVCAR-4 ovarian) [µM] | GI50 (LOX IMVI melanoma) [µM]
1 | CC1CCc2c(c(CC3CC(=O)NC(=O)C3)nn2-c2ccccc2)C1 (stereo unspecified) | > 100 | > 100 | > 100 | > 100 | > 100 | > 100 | > 100 | > 100 | > 100 | > 100 |  |  |  |  |  |  |  |  |  | 
2 | COc1cc(/C=C\c2cc(/C=C\c3ccc(O)c(OC)c3)n(C(=O)CNc3ccc(Cl)cc3)n2)ccc1O | 18.3 | 13.9 | 45 | 14.3 | 13.1 | 18.8 | 41.8 | 14.9 | > 100 | 6.95 | 4.87 | 3.63 | 4.02 | 2.84 | 2.64 | 5.52 | 3.75 | 2.49 | 2.88 | 2.17
3 | CC(=O)O[C@H]1C(=O)[C@@]2(C)[C@H]([C@H](OC(=O)c3ccccc3)[C@@]3(O)C[C@H](O)C(C)=C1C3(C)C)[C@]1(OC(C)=O)CO[C@@H]1C[C@@H]2O | 81.5 | > 100 | > 100 | > 100 | > 100 | > 100 | > 100 | > 100 | > 100 | > 100 |  |  |  |  |  |  |  |  |  | 
4 | CC(C)(C)c1ccc(O)c(CN(Cc2cc(C(C)(C)C)ccc2O)C2CCCCC2)c1 | 6.81 | 42 | 30.4 | 45.9 | 41.2 | 32.4 | 42.1 | > 53.9 | 50.3 | 24.1 |  |  |  |  |  |  |  |  |  | 
5 | COc1ccc2c(c1)N(CCO)C1=C(C(=O)OC1)C2c1ccccc1 (stereo unspecified) | 4.85 | > 50 | 41.7 | > 50 | 12 | > 50 | 2.66 | > 50 | > 50 | > 50 | 1.8 | 2.03 | 5.99 | 2.41 | 1.48 | 2.11 | 0.992 | 2.64 | 3.69 | 2.92
6 | CC(C)(C)NC/C(=C\c1ccccc1)C(=O)c1ccccc1 | 2.88 | 10.1 | 8.12 | 8.99 | 24.4 | 2.28 | 10.8 | 21 | 19.6 | 2.89 | 1.34 | 2.82 | 2.72 | 2.78 | 3.01 | 0.94 | 2.31 | 3.8 | 5.6 | 1.3
7 | Nc1nc(N)c(N=Nc2ccc(C(=O)O)c(O)c2)c(N)n1 | > 100 | > 100 | > 100 | > 100 | > 100 | > 100 | > 100 | > 100 | 35.1 | > 100 |  |  |  |  |  |  |  |  |  | 
8 | COc1cc(-c2ccc(NC(=O)NC3CC3)c(OC)c2)ccc1NC(=O)NC1CC1 | > 100 | > 100 | > 100 | 52.9 | > 100 | > 100 | > 100 | > 100 | > 100 | > 83.8 | 7.67 | 6.83 | 11.6 | 5.83 | 5.28 | 13.9 | > 43.6 | 8.21 | > 100 | 3.15
9 | COC(=O)c1ccc2c(c1)c1c(C)c3ccncc3c(C)c1n2C | > 100 | > 100 | > 100 | > 100 | > 100 | 70.3 | 62.7 | > 100 | 30.8 | 10.8 | 0.113 | 0.121 | 0.391 | 0.0801 | 0.262 | 0.89 | 0.411 | 0.114 | 0.396 | 0.0887
10 | C/C=C(/C)C(=O)OC1C=C(CO)C(=O)C(OC(=O)C(C)(O)C(C)Cl)C1C(C)C (stereo unspecified) | 2.85 | 5.3 | 2.26 |  | 3.47 | 3.05 | 13.3 | 5.08 | 3.95 | 2.82 | 1.3 | 1.56 | 0.758 |  | 1.75 | 1.55 | 2.31 | 2.19 | 1.87 | 1.31
11 | COc1ccc(/C=C2\CC(C)CC3C2=NN(c2ccccc2)C3c2ccc(OC)c(OC)c2)cc1OC (stereo unspecified) | > 100 | > 100 | 13.2 | > 100 |  | > 100 | 9.51 | 37.2 | > 100 | 4.8 | 4.67 | 6.78 | 3.24 | 5.37 |  | 5.78 | 2.71 | 3.31 | 3.65 | 2.19
